Patent US8658351B2, “Determining liver toxicity of an agent using metabolite biomarkers” (Metabolon, Inc., priority 2009, dated 2014)
Where two headings read alike, the source gives them in different places.

What was measured:
Rats [1] = test: Rat liver toxicant study: liver histopathology; conditions: for Histopathology (Necrosis) / Histopathology (Steatosis) / Histopathology (Cholestasis): rats, daily single oral dose; for Histopathology (Necrosis): day at which change was seen (samples day 2 and day 5); for Histopathology (Steatosis) / Histopathology (Cholestasis): day at which change was seen
Method: Rats were treated daily with a single oral dose of a known liver toxicants at low and high doses (as shown in Table 3) as well as with a vehicle control containing none of the toxicant. The hepatotoxic agents listed in Table 3 are known to induce distinct types of liver histopathology as described in Table 4. Plasma, urine, and liver samples were collected at day 2 and day 5 for metabolomic analysis, liver histopathology, and routine clinical chemistry (i.e., aspartate aminotransferase (AST), alanine aminotransferase (ALT), total bilirubin (TBIL), alkaline phosphatase (ALP)).

humans = conditions: cited from earlier work
Rats [2] = conditions: cited from earlier work
Rats [3] = test: Rat liver toxicant study: routine clinical chemistry (AST, ALT, TBIL, ALP); assay type: in vivo; conditions: day at which change was seen
Method: Rats were treated daily with a single oral dose of a known liver toxicants at low and high doses (as shown in Table 3) as well as with a vehicle control containing none of the toxicant. […] Plasma, urine, and liver samples were collected at day 2 and day 5 for metabolomic analysis, liver histopathology, and routine clinical chemistry (i.e., aspartate aminotransferase (AST), alanine aminotransferase (ALT), total bilirubin (TBIL), alkaline phosphatase (ALP)).

[4] = classified as No Rat Tox/Human specific
[5] = High dose, agents known to induce distinct types of liver histopathology

For `CC(=O)Nc1ccc(O)cc1` [Acetaminophen], the “Histopathology (Necrosis)” value (Rats [1]; high dose) was “Day2” and the “Histopathology (Necrosis)” value (Rats [1]; low dose) was “Day2”.
In the case of `NC(=O)N1c2ccccc2C=Cc2ccccc21` [Carbamazepine], the Hepatotoxicity to humans (humans) is given as “known hepatotoxins to humans”, the “Classification of toxic effect on liver histopathology (type of histopathology)” value (“Classification … (type of histopathology)” below) (Rats [2]; rat, in vivo) is given as “No Histopathology” and the “Hepatotoxic changes in rats (histopathology, clinical chemistry)” value (Rats [1]; [4]) is given as “no hepatotoxic changes”.
In the case of `O=C(O)COc1nn(Cc2ccccc2)c2ccccc12` [Bendazac], the “Clinical Chemistry ALP” value (Rats [3]; high dose) is reported as “Day2~”, the “Clinical Chemistry ALT” value (Rats [3]; high dose) is reported as “Day5” and the “Clinical Chemistry ALP” value (Rats [3]; low dose) is reported as “Day2”. The “Clinical Chemistry ALT” value (Rats [3]; low dose) was “Day5”, the “Classification … (type of histopathology)” value (Rats [2]; rat, in vivo) was “Necrosis” and the “Histopathology (Necrosis)” value (Rats [1]; high dose) was “Day5”. For the same compound, the “Histopathology (Necrosis)” value (Rats [1]; low dose) was “Day5”.
For `CC(=O)N1CCN(c2ccc(OCC3COC(Cn4ccnc4)(c4ccc(Cl)cc4Cl)O3)cc2)CC1` (stereo not shown) [Ketoconazole], the “Classification … (type of histopathology)” value (Rats [2]; rat, in vivo) is listed as “Phospholipidosis”.
In the case of `CN(C)CCN(Cc1cccs1)c1ccccn1` [Methapyrilene], the “Clinical Chemistry ALP” value (Rats [3]; high dose) is reported as “Day5”, the “Clinical Chemistry ALT” value (Rats [3]; high dose) is reported as “Day2~” and the “Clinical Chemistry AST” value (Rats [3]; high dose) is reported as “Day2~”. The “Clinical Chemistry TBIL” value (Rats [3]; high dose) was “Day2~”, the “Clinical Chemistry ALT” value (Rats [3]; low dose) was “Day5” and the “Clinical Chemistry AST” value (Rats [3]; low dose) was “Day5”. For the same compound, the “Clinical Chemistry TBIL” value (Rats [3]; low dose) was “Day5”, the “Classification … (type of histopathology)” value (Rats [2]; rat, in vivo) was “Necrosis” and the “Histopathology (Necrosis)” value (Rats [1]; high dose) was “Day2~”. The “Histopathology (Necrosis)” value (Rats [1]; low dose) was “Day5”.
For `ClC(Cl)(Cl)Cl` [Carbon tetrachloride], the “Classification … (type of histopathology)” value (Rats [2]; [5]) is listed as “Steatosis”, the “Histopathology (Steatosis)” value (Rats [1]; high dose) is listed as “Day2~” and the “Histopathology (Steatosis)” value (Rats [1]; low dose) is listed as “Day2~”.
In the case of `S=C=Nc1cccc2ccccc12` [ANIT, 1-naphthyl isothiocyanate], the “Clinical Chemistry ALT” value (Rats [3]; high dose) is reported as “Day2~”, the “Clinical Chemistry AST” value (Rats [3]; high dose) is reported as “Day2~” and the “Clinical Chemistry TBIL” value (Rats [3]; high dose) is reported as “Day2~”. For the same compound, the “Clinical Chemistry ALT” value (Rats [3]; low dose) was “Day5”, the “Clinical Chemistry TBIL” value (Rats [3]; low dose) was “Day5” and the “Histopathology (Cholestasis)” value (Rats [1]; high dose) was “Day2~”. For the same compound, the “Histopathology (Cholestasis)” value (Rats [1]; low dose) was “Day5”.
With `CS(=O)(=O)Nc1ccc([N+](=O)[O-])cc1Oc1ccccc1` [Nimesulide] the “Clinical Chemistry TBIL” value (Rats [3]; high dose) was “Day2”, the “Clinical Chemistry ALT” value (Rats [3]; low dose) was “Day5” and the “Clinical Chemistry TBIL” value (Rats [3]; low dose) was “Day2”. For the same compound, the “Hepatotoxic changes in rats (histopathology, clinical chemistry)” value (Rats [1]; rat, in vivo) was “no hepatotoxic changes”.
With `Clc1ccccc1CN1CCc2sccc2C1` [Ticlopidine] the “Histopathology (Necrosis)” value (Rats [1]; high dose) was “Day5”.
In the case of `CC(C)C(=O)Nc1ccc([N+](=O)[O-])c(C(F)(F)F)c1` [Flutamide], the “Clinical Chemistry TBIL” value (Rats [3]; high dose) is listed as “Day2”, the Hepatotoxicity to humans (humans) is listed as “known hepatotoxins to humans” and the “Classification … (type of histopathology)” value (Rats [2]; rat, in vivo) is listed as “No Histopathology”. For the same compound, the “Hepatotoxic changes in rats (histopathology, clinical chemistry)” value (Rats [1]; [4]) was “no hepatotoxic changes”.
For `CCSCCC(N)C(=O)O` (racemic) [Ethionine, DL Ethionine], the “Clinical Chemistry TBIL” value (Rats [3]; high dose) is given as “Day2~”, the “Clinical Chemistry TBIL” value (Rats [3]; low dose) is given as “Day2~” and the “Classification … (type of histopathology)” value (Rats [2]; [5]) is given as “Steatosis”. For the same compound, the “Histopathology (Steatosis)” value (Rats [1]; high dose) was “Day2~” and the “Histopathology (Steatosis)” value (Rats [1]; low dose) was “Day2”.
With `CN(C)[C@@H]1C(O)=C(C(N)=O)C(=O)[C@@]2(O)C(O)=C3C(=O)c4c(O)cccc4[C@@](C)(O)[C@H]3C[C@@H]12` [Tetracycline] the “Histopathology (Steatosis)” value (Rats [1]; high dose) was “Day5” and the “Histopathology (Steatosis)” value (Rats [1]; low dose) was “Day2~”.
